Source: patent US6951652B2, “Vaccine for prevention of gram-negative bacterial infections and endotoxin related diseases” (BioSynth S.r.l., priority 1998, dated 2005)
Ends that are not written are not given here.

Test: In vitro saturation of lipid A binding site by peptide
Details: stoichiometric saturation

Lys-Thr-Lys-Cys-Lys-Phe-Leu-Lys-Lys-Cys (KTKCKFLKKC; also: cyclic, ring type not given here) [SAEP2]
affinity of binding to lipid A binding site: high affinity
